We go through four compounds from US12168055B2, “Sonosensitization” (priority 2019, dated 2024).

Where two headings read alike, the source gives them in different places.

The subject of data set [1] is normal control cells. To be noted: 5-ALA 1 mM + ultrasound 3 MHz, 2 W/cm^2, 20% duty cycle, 3 min; cited from earlier work.
Data set [2] has as its system C6 glioma cells. To be noted: 5-ALA 60 mg/kg or Radachlorin 40 mg/kg + ultrasound 1.0 MHz, 2.65 W/cm^2, 20 min; vs control groups; cited from earlier work.
The test system of data set [3] is U87 and U251 glioma cells, and U251^Oct-3/4 glioma stem-like cells. The settings on record: 5-ALA 1 mM + ultrasound 3 MHz, 2 W/cm^2, 20% duty cycle, 3 min; cited from earlier work.
The test system of data set [4] is rat osteosarcoma UMR-106 cells. To be noted: 5-ALA 250 mg/kg i.v. 8 h before ultrasound 1.0 MHz, 2.5 W/cm^2, 8 min daily for 10 days; vs all other groups; cited from earlier work.
Data set [5] relates to human U87 glioma cells or U251^Oct-3/4 glioma stem-like cells. The settings on record: 5-ALA 100 mg/kg + ultrasound 2.2 MHz, 0.5 or 2.0 W/cm^2, 3 min, weekly for 3 weeks; cited from earlier work.
In data set [6] the test system is C6 glioma tumor cells.
Procedure: Male Wistar rats received injections of 4×10^5 C6 glioma tumor cells by injection into the right cortex of the brain. On day 7 after injection, rats were administered 5-aminolevulinic acid (20 mg/kg or 0 mg/kg, Levulan®, DUSA Pharmaceuticals, Wilmington, MA) orally, three hours prior to treatment.
Rats were anesthetized and set inside an MRI-guided focused ultrasound system (“FUS”, RK300, FUS Instruments, Toronto, Canada), having a 25 mm diameter spherically curved transducer (resonant frequency f0=1.06 MHz, focal number=0.8). The FUS, with rat, was then inserted into a 7 Telsa MRI system (Brucker BioSpec 70/30 USR, Bruker Ltd., Milton, Ontario, Canada). The MRI was used to precisely aim the FUS device at the brain tumor. Rats were then sonicated at one of four spatial peak temporal average intensities (ISPTA) (6.9 W/cm^2, 13.8 W/cm^2, 27.6 W/cm^2, or 55.2 W/cm^2) for 20 minutes. One group (N=6) was cyclicly sonicated at 27.6 W/cm^2 for 20 minutes, divided into 16 sonication periods of 85 seconds, separated by rest periods of 60 seconds (the multiple point, or “MP” group). In the MP group, 16 individual points within the tumor were sonicated. Control groups (N=5 each) received 5-ALA without FUS treatment, FUS treatment without 5-ALA, or neither 5-ALA nor FUS. Tumor temperature was monitored during sonication using magnetic resonance thermometry. Normalized tumor volume was measured by MRI on days 7, 14, 21, 28, and 35 following injection.
Data set [7] concerns C6 rat glioma cells. To be noted: 5-ALA 100 mg/kg orally 3 h before ultrasound 1.04 MHz, 10 W/cm^2, 5 min; vs 5-ALA or ultrasound alone; cited from earlier work.
Data set [8] concerns SAS cells. To be noted: cited from earlier work; for cell viability: about 2 W/cm^2, 2 min.
Data set [9] has as its system normal brain tissue. To be noted: cited from earlier work.
Data set [10] concerns human THP-1 monocytes (induced to become macrophages and foam cells). The settings on record: berberine 30 μg/mL, ultrasound 1.0 MHz, 0.4 W/cm^2, 10 min; cited from earlier work.
In data set [11] the test system is mammary tumors. The settings on record: porfimer sodium 2.5 mg/kg or higher i.v. 24 h before ultrasound 1.92 MHz, 15 min, 3 W/cm^2 or higher; cited from earlier work.

For the compound `NCC(=O)CCC(=O)O` [5-ALA, 5-aminolevulinic acid], in data set [1], the “cytotoxicity to normal control cells” value is recorded as “not to normal control cells”. Moreover, the tumor size result in data set [2] is on record as “significantly smaller in size”; in data set [7] it was “significantly smaller tumors”. Also, the “cytotoxicity to tumor cells” value in data set [3] is recorded as “substantially cytotoxic to all tumor cells tested”. In data set [4], the tumor volumes result is listed as “significantly smaller than all other groups”. Further, the “survival of treated mice” value in [5] is recorded as “significantly improved the survival”. Also, the “survival, multiple point (MP) group” value in data set [6] (5-ALA 20 mg/kg + FUS 27.6 W/cm^2, 16 points, 16 periods of 85 s with 60 s rest) is reported as “greatest increase in survival”. Further, the survival entry in [6] (5-ALA 20 mg/kg orally 3 h before FUS (1.06 MHz, 20 min), all experimental groups) was “improved survival”. Further, in data set [6] (5-ALA 20 mg/kg orally 3 h before FUS (1.06 MHz, 20 min), all experimental groups vs control animals), the tumor growth result is given as “inhibited tumor growth”. Moreover, in data set [6] (5-ALA 20 mg/kg, sonication at 55.2 W/cm^2), the tissue damage result is reported as “suffered tissue damage”. Further, the normalized tumor volume in [6] (5-ALA only group (20 mg/kg orally), no FUS) was 24+6 mm^3. Also, the “subjects surviving past 60 days” value in data set [6] (MP group: 5-ALA 20 mg/kg + FUS 27.6 W/cm^2 at 16 points) is listed as 50%. In addition, the “SAS cell apoptosis, intracellular reactive oxygen species, and lipid peroxidation” value in data set [8] (10 μg/mL 5-ALA added to ultrasound, vs ultrasound alone) is listed as “significantly increased these effects”. The cell viability (usually the share of living cells, or the viability signal relative to a control) in data set [8] (5-ALA 1 μg/mL 4 h before ultrasound 1.05 MHz) is on record as 88%; in [8] (5-ALA 10 μg/mL 4 h before ultrasound 1.05 MHz) it was 75%; in data set [8] (5-ALA 50 μg/mL 4 h before ultrasound 1.05 MHz), 62%.

For `O=C([O-])c1c(Cl)c(Cl)c(Cl)c(Cl)c1-c1c2cc(I)c(=O)c(I)c-2oc2c(I)c([O-])c(I)cc12.[Na+].[Na+]` [Rose Bengal], the rats displaying lesions in data set [9] (Rose Bengal 10 mg/kg, ultrasound 110 W/cm^2, 3 min) is 5/5; in data set [9] (Rose Bengal 10 mg/kg, ultrasound 110 W/cm^2, 5 min) it was 6/7; in data set [9] (Rose Bengal 50 mg/kg, ultrasound 110 W/cm^2, 3 min), 5/5; in data set [9] (Rose Bengal 50 mg/kg, ultrasound 110 W/cm^2, 5 min) it was 6/6. In [9] (ultrasound 25 W/cm^2, with or without Rose Bengal), the “lesions in normal brain tissue” value is listed as “no lesions”.

For the compound `COc1ccc2cc3[n+](cc2c1OC)CCc1cc2c(cc1-3)OCO2` [berberine], in data set [10], the autophagy in macrophages entry was “induced autophagy in macrophages” and the cholesterol efflux result is “increased cholesterol efflux”.

On to porfimer sodium, for which the tumor growth entry in data set [11] is given as “effectively inhibited tumor growth”.
